According to US12419305B2, “Antimicrobial compositions” (Firmenich SA, priority 2018, dated 2025):

Legend:
C. xerosis ATCC 373 = experiment: BCT test (bacterial contact time), 120 s, log reduction / effect fraction; CI by Compusyn; format: cell-based; settings: Corynebacterium xerosis, ATCC373, 2 min, contact 120 s, 25% EtOH; for log reduction at 0.1 % strength: dose 0.1% w/v; for log reduction at 0.15 % strength: dose 0.15% w/v; for log reduction at 0.2 % strength: dose 0.2% w/v
How it was run: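 C. xerosis cells grown in BHI-TW80 at 37 °C to OD600 1.6 were exposed to ethanolic perfume compositions for 120 s. Viable counts (log CFU) came from serial dilution and OD600 growth after 37 °C incubation, giving log reduction versus ethanol control. CI was computed from concentrations and effect fractions, with <0.9 taken as synergy.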

S. haemolyticus 114126 = experiment: as above; format: cell-based; settings: Staphylococcus haemolyticus, 114126, 2 min, contact 120 s, 25% EtOH; for log reduction at 0.1 % strength: dose 0.1% w/v; for log reduction at 0.125 % strength: dose 0.125% w/v; for log reduction at 0.15 % strength: dose 0.15% w/v
How it was run: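 S. haemolyticus 114126 (skin isolate), grown to OD600 1-2 in BHI-TW80 and resuspended at 1-5×10^8 CFU/mL, was mixed 1:1 with ethanolic perfume compositions or ethanol alone for 45, 60 or 120 s. Viable counts came from serial-dilution regrowth (37 °C, turbidity OD600), giving log reduction versus ethanol control; CI was computed from concentration–effect fraction pairs.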

E. coli ATCC 10536 = experiment: BCT test (bacterial contact time), 45 s, log reduction / effect fraction; CI by Compusyn; format: cell-based, Escherichia coli
How it was run: (§1)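 Perfume ingredients, alone or combined, in ethanol were mixed 1:1 with ~1×10^8 CFU/mL log-phase bacteria in TSB for the stated contact time. Survivors were estimated by serial dilution and OD600 growth at 37 °C; log reduction versus ethanol control. CI from effect fractions via Compusyn (<0.9 synergy, >1.0 antagonism).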

[1] = tested on: Pseudomonas aeruginosa ATCC 15442; experiment: BCT test (bacterial contact time), 60 s, log reduction / effect fraction; CI by Compusyn; format: cell-based; settings: Pseudomonas aeruginosa, ATCC15442, 1 min, BCT 60 s, in 25% EtOH; for log reduction at 0.05 % strength: Dose 0.05 % w/v; for log reduction at 0.06 % strength: Dose 0.06 % w/v
How it was run: as §1

[2] = tested on: Salmonella enterica ATCC 10708; experiment: as above; format: cell-based; settings: Salmonella enterica, ATCC10708, 1 min, BCT 60 s, in 25% EtOH; for log reduction at 0.04 % strength: Dose 0.04 % w/v; for log reduction at 0.05 % strength: Dose 0.05 % w/v, read-out: Log reduction
How it was run: as §1

[3] = Escherichia coli, ATCC10536, 45 s, dose 0.050 % w/v, 45 s, in 20% EtOH
[4] = Escherichia coli, ATCC10536, 45 s, dose 0.060 % w/v, 45 s, in 20% EtOH
[5] = Escherichia coli, ATCC10536, 45 s, dose 0.070 % w/v, 45 s, in 20% EtOH
[6] = Escherichia coli, ATCC10536, 45 s, dose 0.080 % w/v, 45 s, in 20% EtOH

Q: How did the log reduction at 0.1 % strength (C. xerosis ATCC 373) turn out when `CCCCCCC1CCC(=O)O1` (stereo not shown) [Decal] was run?
A: 0.1

Q: What about the log reduction at 0.15 % strength (C. xerosis ATCC 373) of the same compound?
A: 2.2

Q: And the log reduction at 0.2 % strength (C. xerosis ATCC 373; read-out: Log reduction)?
A: 4.6

Q: And the log reduction at 0.25 % strength (C. xerosis ATCC 373; dose 0.25% w/v, read-out: Log reduction)?
A: 5.4

Q: What about the log reduction at 0.3 % strength (C. xerosis ATCC 373; dose 0.3% w/v, read-out: Log reduction) of the same compound?
A: 6.1

Q: What about the log reduction at 0.1 % strength (S. haemolyticus 114126) of the same compound?
A: 0.5

Q: And the log reduction at 0.125 % strength (S. haemolyticus 114126)?
A: 0.7

Q: What about the log reduction at 0.15 % strength (S. haemolyticus 114126) of the same compound?
A: 1.2

Q: And the log reduction at 0.175 % strength (S. haemolyticus 114126; dose 0.175% w/v, read-out: Log reduction)?
A: 3.2

Q: And the log reduction at 0.2 % strength (S. haemolyticus 114126; dose 0.2% w/v)?
A: 4.5

Q: And the log reduction at 0.05 % strength (E. coli ATCC 10536; [3])?
A: 0.1

Q: And the log reduction at 0.05 % strength (E. coli ATCC 10536; Escherichia coli, ATCC10536, 45 s, dose 0.05% w/v, contact 45 s, 20% EtOH)?
A: 0

Q: And the log reduction at 0.06 % strength (E. coli ATCC 10536; [4])?
A: 0.7

Q: And the log reduction at 0.06 % strength (E. coli ATCC 10536; Escherichia coli, ATCC10536, 45 s, dose 0.06% w/v, contact 45 s, 20% EtOH)?
A: 0.9

Q: And the log reduction at 0.07 % strength (E. coli ATCC 10536; [5])?
A: 2.4

Q: And the log reduction at 0.07 % strength (E. coli ATCC 10536; Escherichia coli, ATCC10536, 45 s, dose 0.07% w/v, contact 45 s, 20% EtOH)?
A: 2.8

Q: And the log reduction at 0.08 % strength (E. coli ATCC 10536; [6])?
A: 6.4

Q: What about the log reduction at 0.08 % strength (E. coli ATCC 10536; Escherichia coli, ATCC10536, 45 s, dose 0.08% w/v, contact 45 s, 20% EtOH) of the same compound?
A: 6.1

Q: And the log reduction at 0.09 % strength (E. coli ATCC 10536; Escherichia coli, ATCC10536, 45 s, dose 0.090 % w/v, 45 s, in 20% EtOH)?
A: 7.1

Q: And the log reduction at 0.09 % strength (E. coli ATCC 10536; Escherichia coli, ATCC10536, 45 s, dose 0.09% w/v, contact 45 s, 20% EtOH)?
A: 7.3

Q: And the Log reduction (E. coli ATCC 10536; dose 0.050 % w/v, 45 s, in 20% EtOH)?
A: 0.1

Q: What about the log reduction at 0.05 % strength [1] of the same compound?
A: 1.3

Q: And the log reduction at 0.055 % strength ([1]; Dose 0.055 % w/v)?
A: 2.7

Q: And the log reduction at 0.06 % strength [1]?
A: 2.8

Q: And the log reduction at 0.065 % strength ([1]; Dose 0.065 % w/v)?
A: 4.7

Q: What about the log reduction at 0.07 % strength ([1]; Dose 0.07 % w/v) of the same compound?
A: 5.2

Q: And the log reduction at 0.04 % strength [2]?
A: 0.3

Q: And the log reduction at 0.05 % strength [2]?
A: 0.7

Q: What about the log reduction at 0.06 % strength ([2]; Dose 0.06 % w/v) of the same compound?
A: 1.3

Q: And the log reduction at 0.07 % strength ([2]; Dose 0.07 % w/v)?
A: 2.2

Q: What about the log reduction at 0.08 % strength ([2]; Dose 0.080 % w/v) of the same compound?
A: 5.8

Q: `CC(C)=CCC/C(C)=C/CO` [Geraniol Pur] was tested. Which log reduction at 0.1 % strength (C. xerosis ATCC 373) did it give?
A: 0.9

Q: And the log reduction at 0.125 % strength (C. xerosis ATCC 373; dose 0.125% w/v)?
A: 3.6

Q: And the log reduction at 0.15 % strength (C. xerosis ATCC 373)?
A: 4.8

Q: What about the log reduction at 0.175 % strength (C. xerosis ATCC 373; dose 0.175% w/v) of the same compound?
A: 6.8

Q: And the log reduction at 0.2 % strength (C. xerosis ATCC 373; read-out: Log reduction)?
A: 7

Q: What about the log reduction at 0.05 % strength (S. haemolyticus 114126; dose 0.05% w/v) of the same compound?
A: -0.2

Q: What about the log reduction at 0.1 % strength (S. haemolyticus 114126) of the same compound?
A: 2.7

Q: And the log reduction at 0.125 % strength (S. haemolyticus 114126)?
A: 5.3

Q: And the log reduction at 0.15 % strength (S. haemolyticus 114126)?
A: 7.1

Q: And the log reduction at 0.04 % strength (E. coli ATCC 10536; Escherichia coli, ATCC10536, 45 s, dose 0.040 % w/v, 45 s, in 20% EtOH)?
A: 0.4

Q: What about the log reduction at 0.05 % strength (E. coli ATCC 10536; [3]) of the same compound?
A: 1.9

Q: What about the log reduction at 0.06 % strength (E. coli ATCC 10536; [4]) of the same compound?
A: 6.4

Q: And the log reduction at 0.07 % strength (E. coli ATCC 10536; [5])?
A: 7.4

Q: And the log reduction at 0.08 % strength (E. coli ATCC 10536; [6])?
A: 7.4

Q: What about the log reduction at 0.03 % strength ([1]; Dose 0.03 % w/v) of the same compound?
A: 0.2

Q: And the log reduction at 0.04 % strength ([1]; Dose 0.040 % w/v)?
A: 1.4

Q: And the log reduction at 0.05 % strength [1]?
A: 3.9

Q: And the log reduction at 0.06 % strength [1]?
A: 5.9

Q: And the log reduction at 0.08 % strength ([1]; Dose 0.08 % w/v)?
A: 7.5

Q: And the log reduction at 0.025 % strength ([2]; Dose 0.025 % w/v)?
A: 0.2

Q: What about the log reduction at 0.03 % strength ([2]; Dose 0.03 % w/v) of the same compound?
A: 0.2

Q: And the log reduction at 0.04 % strength [2]?
A: 2.4

Q: And the log reduction at 0.045 % strength ([2]; Dose 0.045 % w/v)?
A: 3.6

Q: And the log reduction at 0.05 % strength [2]?
A: 4.9
